The numbers were not newly measured in US20050038473A1, “Device and method for the treatment of pilosebaceous disorders” (priority 2003, published 2005), which cites them from elsewhere.

The structures appear in SMILES notation. Like-named read-outs stand apart in the source and are kept apart here.

For series [1], the system named is hair follicles.
The subject of series [2] is in-vitro hair follicle cultures. As to conditions: 5-alpha-reductase blocker, versus finasteride.
For series [3], the target named is T1, androgen receptors (Homo sapiens, UniProt P10275).
T1 sequence (P10275 1-920): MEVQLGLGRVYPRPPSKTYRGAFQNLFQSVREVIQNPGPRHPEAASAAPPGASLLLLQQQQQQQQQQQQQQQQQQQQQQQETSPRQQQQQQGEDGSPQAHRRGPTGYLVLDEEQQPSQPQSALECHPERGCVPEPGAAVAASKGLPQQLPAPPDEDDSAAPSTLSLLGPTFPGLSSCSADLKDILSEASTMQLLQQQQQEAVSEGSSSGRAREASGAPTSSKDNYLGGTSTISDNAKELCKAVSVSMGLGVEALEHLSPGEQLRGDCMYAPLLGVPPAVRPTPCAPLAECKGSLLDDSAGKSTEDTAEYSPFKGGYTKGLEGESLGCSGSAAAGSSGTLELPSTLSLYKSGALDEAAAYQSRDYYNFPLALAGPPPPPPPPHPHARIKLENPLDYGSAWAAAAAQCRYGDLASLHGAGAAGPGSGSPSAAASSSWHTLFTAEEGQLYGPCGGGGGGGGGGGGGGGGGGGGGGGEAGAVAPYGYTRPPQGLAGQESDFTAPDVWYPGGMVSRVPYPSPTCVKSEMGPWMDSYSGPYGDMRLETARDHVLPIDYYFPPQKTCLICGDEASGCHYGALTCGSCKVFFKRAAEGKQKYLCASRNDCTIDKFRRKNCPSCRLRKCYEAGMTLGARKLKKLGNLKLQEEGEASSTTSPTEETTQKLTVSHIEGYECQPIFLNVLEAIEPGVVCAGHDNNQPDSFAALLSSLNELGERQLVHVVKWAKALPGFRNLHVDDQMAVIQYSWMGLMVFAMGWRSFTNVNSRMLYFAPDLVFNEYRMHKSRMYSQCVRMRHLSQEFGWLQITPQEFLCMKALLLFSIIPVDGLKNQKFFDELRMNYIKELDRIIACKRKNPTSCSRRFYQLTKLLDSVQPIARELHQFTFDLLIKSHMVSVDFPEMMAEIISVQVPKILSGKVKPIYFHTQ
The note with it: compared with testosterone.

In series [4] the test system is idiopathic hirsutism. The note with it: women with idiopathic hirsutism taking flutamide.

Regarding `C=C1/C(=C\C=C2/CCC[C@]3(C)[C@@H]([C@H](C)CCCC(C)(C)O)CC[C@@H]23)C[C@@H](O)C[C@@H]1O` [1,25-dihydroxyvitamin D3], the “effect on hair and hair follicle growth” value in series [1] (high concentration (100 nM) and after longer contact) is reported as “inhibits”; in series [1] (low concentration (1-10 nM), direct contact with hair follicles), “stimulates”.

Consider `CCN(CC)C(=O)[C@H]1CC[C@H]2[C@@H]3CC[C@H]4N(C)C(=O)CC[C@]4(C)[C@H]3CC[C@]12C` [17-beta-N,N-diethylcarbamyl-4-methyl-4-aza-5-androstan-3-one], for which the “effect on in-vitro hair follicle cultures compared with finasteride” value in series [2] is on record as “greater effect”. For the molecule `CN1C(=S)N(c2ccc(C#N)c(C(F)(F)F)c2)C(=O)C1(C)C` [RU 56187], the “affinity for androgen receptors relative to the affinity of testosterone” value in series [3] is listed as “three times higher”.

For `CC1(C)C(=O)N(c2ccc(C#N)c(C(F)(F)F)c2)C(=S)N1CCCCO` [RU 59063], the “affinity for androgen receptors relative to the affinity of testosterone” value in series [3] was “three times higher”. Take `CC(C)C(=O)Nc1ccc([N+](=O)[O-])c(C(F)(F)F)c1` [flutamide]: the “disturbance of plasma levels of gonadotropins, testosterone, androstenedione or dehydroepiandrostenedione” value in series [4] is “without disturbance”.
